Experimental data reported in patent US11738062B2, “Herbal medicine extracts and uses and methods of preparation thereof” (ALPHA OASIS LLC, priority 2018, dated 2023).

System: collagen-induced arthritis DBA/1J mouse model
Experiment: murine model of collagen-induced arthritis, Arthritic Index (AI) scoring
Format: in vivo
Conditions: #4 and #10 100 μL topical patch, ENBREL 3 mg/kg subcutaneous

For ENBREL®, which “rate of disease progression (overall arthritis severity, FIG. 2)” value (14 days of daily treatment) is on record?
The value was “swiftly arrested”.

What about the “reduction in arthritis severity score (AI)” value (after 14 days of daily treatment, compared to Group 2 (diseased, vegetable oil)) of the same substance?
The value was 71%.
